Test results as given in US20110166107A1, “METHODS AND KITS FOR DETECTING RISK FACTORS FOR DEVELOPMENT OF JAW OSTEONECROSIS AND METHODS OF TREATMENT THEREOF” (UNIVERSITY OF FLORIDA RESEARCH FOUNDATION INC., priority 2008, published 2011).

Experiment: Chart review of BONJ incidence in patients treated with bisphosphonates (UF / VAMC)
Format: in vivo, human
Details: outpatient bone marrow transplant clinic, all patients had myeloma; pamidronate only (total incidence 13%)
Description: Medical and dental charts at the University of Florida (UF) and the associated Veterans Administration Medical Center (VAMC) were reviewed. […] There were 21 males. […] Fourteen patients had modest increases in their serum creatinine concentrations. The average number of previous chemo/radiotherapy regimens was 3.5. Nine patients had Thalidomide, 5 had Bortizomib. Primary disease status was as follows: 12 patients in clinical remission, 5 with stable disease and 10 with progressive disease. Eight patients received statin therapy and 6 had diabetes mellitus. The median length of treatment with BP before the diagnosis of BONJ was 28 months. BONJ involved the mandible in 21 patients, maxilla in 4 and both in 2 patients. The most frequent presentation was pain, swelling, and exposed bone (FIG. 1). […] The BONJ incidence differed among the 3 centers where these patients were treated. […] The incidence in the VAMC was 4.2% while the incidence in the Cancer Center clinic at UF was 1.7%. In the latter two groups, patients had mostly solid tumors. The results described herein are consistent with the reports of increased incidence of BONJ with greater duration of therapy and that myeloma patients are more likely to develop the complication than solid tumor patients.

Compound: NCCC(O)(P(=O)(O)O)P(=O)(O)O [pamidronate]
- BONJ incidence: 4%
